Measured values taken from patent US8148367B2 (Takeda Pharmaceutical Company Limited, priority 2008, dated 2012).

biological target: T1, Recombinant human renin (Homo sapiens, UniProt P00797); assay: In vitro enzymatic activity assay of renin inhibitors (fluorescence, QXL520/HiLyteFluo488 peptide substrate); type: biochemical; settings: recombinant human renin 3 nM, 1 μM substrate, pre-incubated 10 minutes at 37° C., incubation one hour, pH 7.4, 5% DMSO; read-out: IC50 of Exemplified Compounds Against Renin
T1 construct: isolate the active form (residues 67-406); made in house; host or cells: FreeStyle 293-F cells, transient expression of pcDNA3.1(+)/hREN
T1 sequence (P00797 67-406): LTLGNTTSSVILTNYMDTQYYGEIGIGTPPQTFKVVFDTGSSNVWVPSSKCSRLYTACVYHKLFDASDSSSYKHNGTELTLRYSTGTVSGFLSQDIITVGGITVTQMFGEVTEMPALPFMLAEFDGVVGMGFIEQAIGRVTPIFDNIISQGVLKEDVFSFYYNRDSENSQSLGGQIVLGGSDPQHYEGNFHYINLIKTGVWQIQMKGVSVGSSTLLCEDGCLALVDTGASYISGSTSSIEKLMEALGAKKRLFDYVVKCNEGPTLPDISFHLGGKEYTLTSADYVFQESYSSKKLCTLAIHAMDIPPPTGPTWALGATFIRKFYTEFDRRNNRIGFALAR

| IC50 [µM] | Structure (SMILES) |
| --- | --- |
| > 1 | O=C(c1c(-c2ccccc2)n(-c2cccc(N3CCOCC3)c2)c(=O)n1CCCNS(=O)(=O)c1ccccc1F)N1CCNCC1 [Example 193, 2-Fluoro-N-(3-(3-(3-morpholinophenyl)-2-oxo-4-phenyl-5-(piperazine-1-carbonyl)-2,3-dihydro-1H-imidazol-1-yl)propyl)benzenesulfonamide] |
| 0.5 to 1 | O=C(NC[C@@H]1CNCCN1C(=O)c1[nH]c(=O)n([C@@H]2CCCC[C@H]2O)c1-c1ccccc1)c1ccccc1 [Example 107, N—(((S)-1-(1-((1R,2R)-2-Hydroxycyclohexyl)-2-oxo-5-phenyl-2,3-dihydro-1H-imidazole-4-carbonyl)piperazin-2-yl)methyl)benzamide] |
| > 1 | O=C(c1[nH]c(=O)n(-c2ccccc2)c1-c1cccc(F)c1)N1CCNCC1 [Example 21, 5-(3-Fluorophenyl)-1-phenyl-4-(piperazine-1-carbonyl)-1H-imidazol-2(3H)-one] |
| 0.5 to 1 | O=C(c1c(-c2ccccc2)n(-c2cccc(N3CCOCC3)c2)c(=O)n1CCCNS(=O)(=O)c1ccc(Cl)cc1)N1CCNCC1 [Example 202, 4-Chloro-N-(3-(3-(3-morpholinophenyl)-2-oxo-4-phenyl-5-(piperazine-1-carbonyl)-2,3-dihydro-1H-imidazol-1-yl)propyl)benzenesulfonamide] |
| < 0.1 | O=C(c1[nH]c(=O)n([C@H]2CCCC[C@@H]2O)c1-c1ccccc1)N1CCNC[C@H]1Cc1ccccc1 [Example 126, 4-((R)-2-Benzylpiperazine-1-carbonyl)-1-((1S,2S)-2-hydroxycyclohexyl)-5-phenyl-1H-imidazol-2(3H)-one] |
| > 1 | O=C(c1[nH]c(=O)n(-c2ccccc2)c1-c1ccccc1)N1CCNCC1CO (stereo not shown) [Example 20, 4-(2-(Hydroxymethyl)piperazine-1-carbonyl)-1,5-diphenyl-1H-imidazol-2(3H)-one] |
| 0.1 to 0.5 | CCCC(=O)Nc1ccccc1-n1c(-c2ccccc2)c(C(=O)N2CCNC[C@H]2Cc2ccccc2)[nH]c1=O [Example 121, (R)—N-(2-(4-(2-Benzylpiperazine-1-carbonyl)-2-oxo-5-phenyl-2,3-dihydro-1H-imidazol-1-yl)phenyl)butyramide] |
| > 1 | Cc1ccccc1-n1c(-c2ccccc2)c(C(=O)N2CCNCC2)n(CCNC(=O)CC(C)C)c1=O [Example 238, 3-Methyl-N-(2-(2-oxo-4-phenyl-5-(piperazine-1-carbonyl)-3-o-tolyl-2,3-dihydro-1H-imidazol-1-yl)ethyl)butanamide] |
| > 1 | Cc1ccccc1-n1c(-c2ccccc2)c(C(=O)N2CCNCC2)n(CC2CCCCC2)c1=O [Example 163, 1-(Cyclohexylmethyl)-4-phenyl-5-(piperazine-1-carbonyl)-3-o-tolyl-1H-imidazol-2(3H)-one] |
| 0.5 to 1 | Nc1nc(Cn2c(C(=O)N3CCNCC3)c(-c3ccccc3)n(-c3ccccc3)c2=O)cs1 [Example 50, 1-((2-Aminothiazol-4-yl)methyl)-3,4-diphenyl-5-(piperazine-1-carbonyl)-1H-imidazol-2(3H)-one] |
| > 1 | COc1ccc(C(=O)NCCCn2c(C(=O)N3CCNCC3)c(-c3ccccc3)n(-c3ccccc3C)c2=O)cc1 [Example 245, 4-Methoxy-N-(3-(2-oxo-4-phenyl-5-(piperazine-1-carbonyl)-3-o-tolyl-2,3-dihydro-1H-imidazol-1-yl)propyl)benzamide] |
| > 1 | O=C(c1c(-c2ccccc2)n([C@@H]2CCCC[C@H]2O)c(=O)n1Cc1ccccc1)N1CCNCC1 [Example 105, 1-Benzyl-3-((1R,2R)-2-hydroxycyclohexyl)-4-phenyl-5-(piperazine-1-carbonyl)-1H-imidazol-2(3H)-one] |
| 0.5 to 1 | O=C(c1c(-c2ccccc2)n(C2CCCN(S(=O)(=O)c3ccccc3)C2)c(=O)n1Cc1ccccc1)N1CCNCC1 (stereo not shown) [Example 96, 1-Benzyl-4-phenyl-3-(1-(phenylsulfonyl)piperidin-3-yl)-5-(piperazine-1-carbonyl)-1H-imidazol-2(3H)-one] |
| 0.5 to 1 | CC(=O)N1CCCC(n2c(-c3ccccc3)c(C(=O)N3CCNC[C@H]3Cc3ccccc3)[nH]c2=O)C1 (stereo partly drawn) [Example 115, 1-(1-Acetylpiperidin-3-yl)-4-((R)-2-benzylpiperazine-1-carbonyl)-5-phenyl-1H-imidazol-2(3H)-one] |
| 0.1 to 0.5 | COc1cccc(NC(=O)NCCCn2c(C(=O)N3CCNCC3)c(-c3ccccc3)n(-c3ccccc3C)c2=O)c1 [Example 226, 1-(3-Methoxyphenyl)-3-(3-(2-oxo-4-phenyl-5-(piperazine-1-carbonyl)-3-o-tolyl-2,3-dihydro-1H-imidazol-1-yl)propyl)urea] |
| > 1 | COc1cccc(Cn2c(C(=O)N3CCNCC3)c(-c3ccccc3)n([C@H]3CCCC[C@H]3O)c2=O)c1 [Example 153, 1-((1S,2R)-2-Hydroxycyclohexyl)-3-(3-methoxybenzyl)-5-phenyl-4-(piperazine-1-carbonyl)-1H-imidazol-2(3H)-one] |

| IC50 [µM] | Structure (SMILES) |
| --- | --- |
| 0.1 to 0.5 | COc1cccc(NC(=O)NCCn2c(C(=O)N3CCNCC3)c(-c3ccccc3)n(-c3ccccc3C)c2=O)c1 [Example 215, 1-(3-Methoxyphenyl)-3-(2-(2-oxo-4-phenyl-5-(piperazine-1-carbonyl)-3-o-tolyl-2,3-dihydro-1H-imidazol-1-yl)ethyl)urea] |
| 0.5 to 1 | Cc1ccccc1-n1c(-c2ccccc2)c(C(=O)N2CCNCC2)n(CCCNS(=O)(=O)c2ccccc2F)c1=O [Example 229, 2-Fluoro-N-(3-(2-oxo-4-phenyl-5-(piperazine-1-carbonyl)-3-o-tolyl-2,3-dihydro-1H-imidazol-1-yl)propyl)benzenesulfonamide] |
| < 0.1 | Cc1ccccc1-n1c(-c2ccccc2)c(C(=O)N2CCNCC2)n(CCCNS(=O)(=O)c2ccccc2Cl)c1=O [Example 217, 2-Chloro-N-(3-(2-oxo-4-phenyl-5-(piperazine-1-carbonyl)-3-o-tolyl-2,3-dihydro-1H-imidazol-1-yl)propyl)benzenesulfonamide] |
| 0.5 to 1 | COCCCOc1cccc(-n2c(-c3ccccc3)c(C(=O)N3CCNCC3)n(CCCNC(=O)c3ccccc3)c2=O)c1 [Example 179, N-(3-(3-(3-(3-Methoxypropoxy)phenyl)-2-oxo-4-phenyl-5-(piperazine-1-carbonyl)-2,3-dihydro-1H-imidazol-1-yl)propyl)benzamide] |
| > 1 | O=C(c1c(-c2ccccc2)n([C@H]2CCCC[C@H]2O)c(=O)n1Cc1ccc(F)c(F)c1)N1CCNCC1 [Example 154, 1-(3,4-Difluorobenzyl)-3-((1S,2R)-2-hydroxycyclohexyl)-4-phenyl-5-(piperazine-1-carbonyl)-1H-imidazol-2(3H)-one] |
| > 1 | O=C(O)COc1cccc(Cn2c(C(=O)N3CCNCC3)c(-c3ccccc3)n(-c3cccc(N4CCOCC4)c3)c2=O)c1 [Example 59, 2-(3-((3-(3-Morpholinophenyl)-2-oxo-4-phenyl-5-(piperazine-1-carbonyl)-2,3-dihydro-1H-imidazol-1-yl)methyl)phenoxy)acetic acid] |
| < 0.1 | O=C(c1c(-c2ccccc2)n(-c2ccccc2)c(=O)n1Cc1cccc(-n2cccc2)c1)N1CCNCC1 [Example 88, 1-(3-(1H-Pyrrol-1-yl)benzyl)-3,4-diphenyl-5-(piperazine-1-carbonyl)-1H-imidazol-2(3H)-one] |
| > 1 | C[C@@H]1CN(C(=O)c2[nH]c(=O)n(C3CCCCC3)c2-c2ccccc2)CCN1 [Example 37, (R)-1-Cyclohexyl-4-(3-methylpiperazine-1-carbonyl)-5-phenyl-1H-imidazol-2(3H)-one] |
| < 0.1 | O=C(c1[nH]c(=O)n(-c2cccc(N3CCOCC3)c2)c1-c1ccccc1)N1CCNC[C@H]1Cc1ccccc1 [Example 110, (R)-4-(2-Benzylpiperazine-1-carbonyl)-1-(3-morpholinophenyl)-5-phenyl-1H-imidazol-2(3H)-one] |
| < 0.1 | O=C(c1[nH]c(=O)n(-c2ccc3c(c2)NCC3)c1-c1ccccc1)N1CCNC[C@H]1Cc1ccccc1 [Example 136, (R)-4-(2-Benzylpiperazine-1-carbonyl)-1-(indolin-6-yl)-5-phenyl-1H-imidazol-2(3H)-one] |
| 0.1 to 0.5 | COc1cccc(S(=O)(=O)NCCCn2c(C(=O)N3CCNCC3)c(-c3ccccc3)n(-c3ccccc3C)c2=O)c1 [Example 221, 3-Methoxy-N-(3-(2-oxo-4-phenyl-5-(piperazine-1-carbonyl)-3-o-tolyl-2,3-dihydro-1H-imidazol-1-yl)propyl)benzenesulfonamide] |
| > 1 | COCCCOc1cccc(-n2c(-c3cccc(Cl)c3)c(C(=O)N3CCNCC3)[nH]c2=O)c1 [Example 42, 5-(3-Chlorophenyl)-1-(3-(3-methoxypropoxy)phenyl)-4-(piperazine-1-carbonyl)-1H-imidazol-2(3H)-one] |
| 0.5 to 1 | Cc1ccccc1-n1c(-c2ccccc2)c(C(=O)N2CCNCC2)n(CCNS(=O)(=O)C(C)C)c1=O [Example 206, N-(2-(2-Oxo-4-phenyl-5-(piperazine-1-carbonyl)-3-o-tolyl-2,3-dihydro-1H-imidazol-1-yl)ethyl)propane-2-sulfonamide] |
| > 1 | COC(=O)NCCCn1c(C(=O)N2CCNCC2)c(-c2ccccc2)n(-c2ccccc2C)c1=O [Example 253, Methyl 3-(2-oxo-4-phenyl-5-(piperazine-1-carbonyl)-3-o-tolyl-2,3-dihydro-1H-imidazol-1-yl)propylcarbamate] |
| 0.5 to 1 | O=C(c1c(-c2ccccc2)n(C2CCCN(S(=O)(=O)c3ccccc3)C2)c(=O)n1Cc1ccccc1)N1CCNCC1 (stereo not shown) [Example 100, 1-Benzyl-4-phenyl-3-(1-(phenylsulfonyl)piperidin-3-yl)-5-(piperazine-1-carbonyl)-1H-imidazol-2(3H)-one] |
